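Following 48 hours of exposure in 96-well plates, responses at five concentrations were used to interpolate endpoints linearly. Abbreviation: GI50, concentration required for 50% inhibition of growth. The concentration for full growth arrest is given as TGI.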
What was measured:
Experiment in all cases: NCI anticancer screen, dose series, 48 h
786-0 renal = test system: 786-0 renal
A498 renal = test system: A498 renal
A549 NSCLC = test system: A549 NSCLC
ACHN renal = test system: ACHN renal
BT-549 breast = test system: BT-549 breast
CAKI-1 renal = test system: CAKI-1 renal
CCRF-CEM leukemia = test system: CCRF-CEM leukemia
COLO 205 colon = test system: COLO 205 colon
DU-145 prostate = test system: DU-145 prostate
EKVX NSCLC = test system: EKVX NSCLC
HCC-2998 colon = test system: HCC-2998 colon
HCT-116 colon = test system: HCT-116 colon
HCT-15 colon = test system: HCT-15 colon
HL-60(TB) leukemia = test system: HL-60(TB) leukemia
HOP-62 NSCLC = test system: HOP-62 NSCLC
HOP-92 NSCLC = test system: HOP-92 NSCLC
HS 578T breast = test system: HS 578T breast
HT29 colon = test system: HT29 colon
IGROV1 ovarian = test system: IGROV1 ovarian
K-562 leukemia = test system: K-562 leukemia
KM12 colon = test system: KM12 colon
M14 melanoma = test system: M14 melanoma
MALME-3M melanoma = test system: MALME-3M melanoma
MCF7 breast = test system: MCF7 breast
MDA-MB-231 breast = test system: MDA-MB-231 breast
MDA-MB-435 = test system: MDA-MB-435
MOLT-4 leukemia = test system: MOLT-4 leukemia
NCI-H226 lung = test system: NCI-H226 lung
NCI-H23 lung = test system: NCI-H23 lung
NCI-H460 lung = test system: NCI-H460 lung
NCI-H522 lung = test system: NCI-H522 lung
NCI/ADR-RES ovarian = test system: NCI/ADR-RES ovarian
OVCAR-3 ovarian = test system: OVCAR-3 ovarian
OVCAR-4 ovarian = test system: OVCAR-4 ovarian
OVCAR-5 ovarian = test system: OVCAR-5 ovarian
OVCAR-8 ovarian = test system: OVCAR-8 ovarian
PC-3 prostate = test system: PC-3 prostate
RPMI-8226 leukemia = test system: RPMI-8226 leukemia
RXF 393 renal = test system: RXF 393 renal
SF-268 CNS = test system: SF-268 CNS
SF-295 CNS = test system: SF-295 CNS
SF-539 CNS = test system: SF-539 CNS
SK-MEL-2 melanoma = test system: SK-MEL-2 melanoma
SK-MEL-28 melanoma = test system: SK-MEL-28 melanoma
SK-MEL-5 melanoma = test system: SK-MEL-5 melanoma
SK-OV-3 ovarian = test system: SK-OV-3 ovarian
SN12C renal = test system: SN12C renal
SNB-19 CNS = test system: SNB-19 CNS
SNB-75 CNS = test system: SNB-75 CNS
SR leukemia = test system: SR leukemia
SW-620 colon = test system: SW-620 colon
T-47D breast = test system: T-47D breast
TK-10 renal = test system: TK-10 renal
U251 CNS = test system: U251 CNS
UACC-257 melanoma = test system: UACC-257 melanoma
UACC-62 melanoma = test system: UACC-62 melanoma
UO-31 renal = test system: UO-31 renal

SMILES: CN1CCc2c(sc3ncnc(N/N=C/c4ccc(Cl)c(Cl)c4)c23)C1
- GI50 (786-0 renal): 12.4 µM
- TGI (786-0 renal): 32.1 µM
- GI50 (A498 renal): 19.9 µM
- TGI (A498 renal): 35.6 µM
- GI50 (A549 NSCLC): 11 µM
- TGI (A549 NSCLC): 32.1 µM
- GI50 (ACHN renal): 15.1 µM
- TGI (ACHN renal): 31.5 µM
- GI50 (BT-549 breast): 14 µM
- TGI (BT-549 breast): 33 µM
- GI50 (CAKI-1 renal): 15.2 µM
- TGI (CAKI-1 renal): 29.1 µM
- GI50 (CCRF-CEM leukemia): 14 µM
- TGI (CCRF-CEM leukemia): > 100 µM
- GI50 (COLO 205 colon): 10.6 µM
- TGI (COLO 205 colon): 27.5 µM
- GI50 (DU-145 prostate): 14.5 µM
- TGI (DU-145 prostate): 28.5 µM
- GI50 (EKVX NSCLC): 19.1 µM
- TGI (EKVX NSCLC): 39 µM
- GI50 (HCC-2998 colon): 9.8 µM
- TGI (HCC-2998 colon): 25.7 µM
- GI50 (HCT-116 colon): 13.7 µM
- TGI (HCT-116 colon): 44.4 µM
- GI50 (HCT-15 colon): 6.61 µM
- TGI (HCT-15 colon): 22.2 µM
- GI50 (HL-60(TB) leukemia): 2.04 µM
- TGI (HL-60(TB) leukemia): 4.83 µM
- GI50 (HOP-62 NSCLC): 10.2 µM
- TGI (HOP-62 NSCLC): 41.4 µM
- GI50 (HOP-92 NSCLC): 7.63 µM
- TGI (HOP-92 NSCLC): 34.3 µM
- GI50 (HS 578T breast): 22.1 µM
- TGI (HS 578T breast): 65.8 µM
- GI50 (HT29 colon): 13.6 µM
- TGI (HT29 colon): 29.3 µM
- GI50 (IGROV1 ovarian): 15.6 µM
- TGI (IGROV1 ovarian): 31.8 µM
- GI50 (K-562 leukemia): 12.5 µM
- TGI (K-562 leukemia): 57 µM
- GI50 (KM12 colon): 17.9 µM
- TGI (KM12 colon): 34 µM
- GI50 (M14 melanoma): 17.6 µM
- TGI (M14 melanoma): 43.8 µM
- GI50 (MALME-3M melanoma): 14.1 µM
- TGI (MALME-3M melanoma): 28.5 µM
- GI50 (MCF7 breast): 3.94 µM
- TGI (MCF7 breast): 18.6 µM
- GI50 (MDA-MB-231 breast): 12.4 µM
- TGI (MDA-MB-231 breast): 26.8 µM
- GI50 (MDA-MB-435): 18.2 µM
- TGI (MDA-MB-435): 34.4 µM
- GI50 (MOLT-4 leukemia): 11.9 µM
- TGI (MOLT-4 leukemia): 43.6 µM
- GI50 (NCI-H226 lung): 77.9 µM
- TGI (NCI-H226 lung): > 100 µM
- GI50 (NCI-H23 lung): 13.5 µM
- TGI (NCI-H23 lung): 31.2 µM
- GI50 (NCI-H460 lung): 16.4 µM
- TGI (NCI-H460 lung): 34.7 µM
- GI50 (NCI-H522 lung): 11.7 µM
- TGI (NCI-H522 lung): 28.3 µM
- GI50 (NCI/ADR-RES ovarian): 14.3 µM
- TGI (NCI/ADR-RES ovarian): 34.1 µM
- GI50 (OVCAR-3 ovarian): 15.7 µM
- TGI (OVCAR-3 ovarian): 30.1 µM
- GI50 (OVCAR-4 ovarian): 15.5 µM
- TGI (OVCAR-4 ovarian): 30.9 µM
- GI50 (OVCAR-5 ovarian): 15.3 µM
- TGI (OVCAR-5 ovarian): 30.9 µM
- GI50 (OVCAR-8 ovarian): 14.1 µM
- TGI (OVCAR-8 ovarian): 39.7 µM
- GI50 (PC-3 prostate): 18.1 µM
- TGI (PC-3 prostate): 43.9 µM
- GI50 (RPMI-8226 leukemia): 17 µM
- TGI (RPMI-8226 leukemia): 66.4 µM
- GI50 (RXF 393 renal): 12.8 µM
- TGI (RXF 393 renal): 28.1 µM
- GI50 (SF-268 CNS): 16.5 µM
- TGI (SF-268 CNS): 39.4 µM
- GI50 (SF-295 CNS): 13 µM
- TGI (SF-295 CNS): 27.9 µM
- GI50 (SF-539 CNS): 13.8 µM
- TGI (SF-539 CNS): 29.8 µM
- GI50 (SK-MEL-2 melanoma): 38.4 µM
- TGI (SK-MEL-2 melanoma): > 100 µM
- GI50 (SK-MEL-28 melanoma): 13.7 µM
- TGI (SK-MEL-28 melanoma): 29.8 µM
- GI50 (SK-MEL-5 melanoma): 13.7 µM
- TGI (SK-MEL-5 melanoma): 28.5 µM
- GI50 (SK-OV-3 ovarian): 17.1 µM
- TGI (SK-OV-3 ovarian): 34.8 µM
- GI50 (SN12C renal): 11.5 µM
- TGI (SN12C renal): 26.3 µM
- GI50 (SNB-19 CNS): 15.4 µM
- TGI (SNB-19 CNS): 35.6 µM
- GI50 (SNB-75 CNS): 14.6 µM
- TGI (SNB-75 CNS): 28.6 µM
- GI50 (SR leukemia): 2.52 µM
- TGI (SR leukemia): 8.04 µM
- GI50 (SW-620 colon): 12.1 µM
- TGI (SW-620 colon): 29.8 µM
- GI50 (T-47D breast): 19.9 µM
- TGI (T-47D breast): 49.9 µM
- GI50 (TK-10 renal): 21.2 µM
- TGI (TK-10 renal): 36.1 µM
- GI50 (U251 CNS): 17.1 µM
- TGI (U251 CNS): 35.8 µM
- GI50 (UACC-257 melanoma): 14.8 µM
- TGI (UACC-257 melanoma): 30.2 µM
- GI50 (UACC-62 melanoma): 14.9 µM
- TGI (UACC-62 melanoma): 29.6 µM
- GI50 (UO-31 renal): 10.1 µM
- TGI (UO-31 renal): 22.7 µM
